For 51 compounds, IC50, Activity and inhibition results are on record in ChEMBL document CHEMBL1140849, “Selective small molecule inhibitors of the potential breast cancer marker, human arylamine N-acetyltransferase 1, and its murine homologue, mouse arylamine N-acetyltransferase 2” (Bioorg Med Chem, 2009).

Each structure is given as a SMILES string. Active and inactive are the calls of the source. No cut-off for these calls is given here.

As usually defined, the IC50 is the concentration needed to halve the response being measured.

The target of data set [1] is T1, Arylamine N-acetyltransferase 2 (Mus musculus, UniProt P50295).
T1 sequence (P50295 whole entry): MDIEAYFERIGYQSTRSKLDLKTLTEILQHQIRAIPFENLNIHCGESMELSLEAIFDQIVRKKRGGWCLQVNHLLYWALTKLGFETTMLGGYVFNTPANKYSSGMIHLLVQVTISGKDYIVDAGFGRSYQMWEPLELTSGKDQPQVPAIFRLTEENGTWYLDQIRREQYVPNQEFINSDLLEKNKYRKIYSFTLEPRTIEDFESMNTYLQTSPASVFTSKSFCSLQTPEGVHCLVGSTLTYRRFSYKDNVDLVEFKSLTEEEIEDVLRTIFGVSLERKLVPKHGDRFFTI
Nature of the data set: Inhibition of mouse recombinant NAT2 assessed as hydrolysis of acetyl coA using PABA as substrate by Ellman's method.

Data set [2] in a line: Cytotoxicity against mouse macrophage at 10 ug/ml after 72 hrs by trypan blue exclusion method. The data set is classed as cell-based.
Data set [3] relates to Mycobacterium marinum. Kind of data set: Inhibition of Mycobacterium marinum recombinant NAT using isoniazid as substrate at 30 uM.
The target in data set [4] is T2, Arylamine N-acetyltransferase (Pseudomonas aeruginosa (strain ATCC 15692 / PAO1 / 1C / PRS 101 / LMG12228), UniProt Q9HUY3).
T2 sequence (Q9HUY3 whole entry): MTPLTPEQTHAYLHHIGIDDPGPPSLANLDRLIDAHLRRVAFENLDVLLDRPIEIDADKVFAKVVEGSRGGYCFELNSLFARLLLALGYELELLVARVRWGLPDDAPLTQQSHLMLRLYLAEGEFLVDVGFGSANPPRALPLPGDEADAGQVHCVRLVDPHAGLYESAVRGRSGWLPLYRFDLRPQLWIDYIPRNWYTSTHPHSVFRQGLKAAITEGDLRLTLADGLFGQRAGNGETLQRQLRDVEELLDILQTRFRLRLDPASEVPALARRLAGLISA
The conditions noted are these: read-out: INH.
Description: Inhibition of Pseudomonas aeruginosa recombinant NAT using isoniazid as substrate at 30 uM

The target of data set [5] is T3, Arylamine N-acetyltransferase 1 (Homo sapiens, UniProt P18440).
T3 sequence (P18440 whole entry): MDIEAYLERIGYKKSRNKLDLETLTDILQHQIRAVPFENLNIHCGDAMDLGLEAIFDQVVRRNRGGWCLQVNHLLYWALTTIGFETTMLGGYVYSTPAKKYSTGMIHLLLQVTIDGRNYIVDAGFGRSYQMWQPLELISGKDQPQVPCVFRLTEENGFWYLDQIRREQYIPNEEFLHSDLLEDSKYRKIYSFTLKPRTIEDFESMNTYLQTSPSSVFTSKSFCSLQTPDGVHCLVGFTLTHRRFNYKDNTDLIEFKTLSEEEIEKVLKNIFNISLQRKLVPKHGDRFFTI
Kind of data set: Inhibition of human recombinant NAT1 assessed as hydrolysis of acetyl coA using PABA as substrate by Ellman's method. (In general: Ellman's reagent forms a yellow product with free thiols.)

The target in data set [6] is T4, Arylamine N-acetyltransferase 2 (NAT2) (Mus musculus, UniProt P50295).
T4 sequence (P50295 whole entry): T1 sequence (P50295 whole entry)
Kind of data set: Inhibition of mouse recombinant NAT2 using 5-aminosalicylic acid as substrate at 30 uM. The conditions noted are these: recombinant NAT2, probe 5-aminosalicylic acid.

Data set [7] addresses T5, Arylamine N-acetyltransferase 2 (NAT2) (Homo sapiens, UniProt P11245).
T5 sequence (P11245 whole entry): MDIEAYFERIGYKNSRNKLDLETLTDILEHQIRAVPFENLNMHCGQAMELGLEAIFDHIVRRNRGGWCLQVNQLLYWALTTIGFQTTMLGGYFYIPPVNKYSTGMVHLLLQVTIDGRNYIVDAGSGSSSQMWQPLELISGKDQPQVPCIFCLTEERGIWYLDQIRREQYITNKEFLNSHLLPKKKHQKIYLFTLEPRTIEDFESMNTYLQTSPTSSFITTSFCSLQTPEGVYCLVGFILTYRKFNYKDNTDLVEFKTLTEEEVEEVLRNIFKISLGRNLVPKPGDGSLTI
Kind of data set: Inhibition of human recombinant NAT2 using 5-aminosalicylic acid as substrate at 30 uM. The following applies: recombinant NAT2, probe 5-aminosalicylic acid.

The target in data set [8] is T2, Arylamine N-acetyltransferase. Kind of data set: Inhibition of Pseudomonas aeruginosa recombinant NAT using 5-aminosalicylic acid as substrate at 30 uM. The following applies: read-out: INH.
The subject of data set [9] is ZR75. Kind of data set: Inhibition of NAT in human ZR75 cell lysate assessed as acetylation of aryl amine using PABA as substrate at 30 uM. The data set is classed as cell-free.
Data set [10] concerns the target T1, Arylamine N-acetyltransferase 2. Nature of the data set: Inhibition of mouse recombinant NAT2 using PABA as substrate at 30 uM.
In data set [11] the test system is Mycobacterium marinum. The conditions noted are these: 30 uM.
Description: Inhibition of Mycobacterium marinum recombinant NAT using 5-aminosalicylic acid as substrate at 30 uM

As to `CN1C(=O)/C(=C/c2ccccc2F)SC1=S`, the IC50 in data set [1] was 11.8 µM. As for `NN1C(=O)/C(=C/c2ccccc2O)SC1=S`, the IC50 in [1] is 5.1 µM. In data set [2], this compound had an Activity of less than 80%. With `O=C1NC(=S)S/C1=C\c1ccc2ccccc2c1`, in [1], the IC50 turned out to be 26.9 µM. On the same count and under the same terms, as for `CN1C(=O)/C(=C/c2ccccc2O)SC1=S`, the figure is 20.1 µM; as for `NN1C(=O)/C(=C/c2ccc(Cl)cc2)SC1=S`, 5.7 µM; as for `O=C1NC(=S)S/C1=C\c1ccccc1-c1ccccc1`, 16.5 µM.

As to `CN1C(=O)/C(=C/c2ccccc2-c2ccccc2)SC1=S`, in data set [1], the half-maximal inhibitory concentration (IC50) was determined as 10.1 µM. Consider `Cc1cccc(/C=C2\SC(=S)NC2=O)c1`, for which the inhibition in data set [3] was less than 40%. In addition, in data set [4], the inhibition at 30 µM was less than 40%. On to `O=C1NC(=S)S/C1=C\Cc1ccccc1`, for which the IC50 in data set [1] was found to be 24.2 µM. Same read-out and setting: as for `COc1cccc(/C=C2\SC(=S)N(C)C2=O)c1`, the figure is 13.6 µM. In the case of `COc1ccccc1/C=C1\SC(=S)NC1=O`, in [5], the 50% inhibitory concentration (IC50) is 17.6 µM. In data set [3], the inhibition is less than 40%. In data set [4], the inhibition at 30 µM is less than 40%. In the case of `O=C1NC(=S)S/C1=C\c1ccc(Cl)c(Cl)c1`, in data set [3], the inhibition was less than 40%. Further, the inhibition at 30 µM in data set [4] was less than 40%. As for `CN1C(=O)/C(=C/c2ccc3ccccc3c2)SC1=S`, the IC50 in data set [1] stood at 4.7 µM.

In the case of `O=C1NC(=S)S/C1=C\c1ccc(Cl)cc1`, the 50% inhibitory concentration (IC50) in data set [5] was 4.7 µM. Further, the inhibition in [3] is less than 40%. For the same compound, the inhibition at 30 µM in data set [4] is less than 40%. For the compound `CN1C(=O)/C(=C/c2ccc(-c3ccccc3)cc2)SC1=S`, the half-inhibitory concentration (IC50) in data set [1] turned out to be 5.5 µM. Same read-out and setting: as for `C/C(=C1/SC(=S)N(C)C1=O)c1ccccc1`, the figure is more than 30 µM. On to `NN1C(=O)/C(=C/c2ccccc2-c2ccccc2)SC1=S`, for which, in data set [1], the IC50 was 0.3 µM. The Activity in [2] is reported as less than 80%. Take `CN1C(=O)/C(=C/c2ccc(Cl)cc2)SC1=S`: the IC50 in data set [1] amounted to 9.4 µM.

`O=C1NC(=S)S/C1=C\c1ccc(O)cc1`: the IC50 in data set [5] was 16.9 µM. Further, the inhibition in data set [3] was less than 40%. The inhibition at 30 µM in data set [4] is less than 40%. In the case of `CN1C(=O)/C(=C/c2ccc(F)cc2)SC1=S`, the half-maximal inhibitory concentration (IC50) in data set [1] worked out at 20.7 µM. `O=C1NC(=S)S/C1=C\c1cc(I)c(O)c(I)c1`: the inhibition at 30 µM was 104% in data set [6], 46% in data set [7], 52% in data set [8] and less than 40% in data set [4]. In data set [9], the result was Active. In addition, the values for the Activity in data set [2] and in data set [10] were more than 80% and “Active”, respectively. Also, the inhibition in data set [3] was less than 40%; in data set [11], 40%. For `O=C1NC(=S)S/C1=C\c1cccc(O)c1`, the Activity in data set [2] is listed as less than 80%. The inhibition in data set [3] is less than 40%. Besides, the inhibition at 30 µM in data set [4] was less than 40%. Consider `O=C1NC(=S)S/C1=C\c1ccc(F)cc1`, for which the IC50 in data set [5] amounted to 12.9 µM. Besides, the inhibition in data set [3] was less than 40%. In data set [4], the inhibition at 30 µM is less than 40%. Turning to `O=C1NC(=O)/C(=C/c2ccc3ccccc3c2)S1`, the IC50 in data set [1] is more than 30 µM. `COc1cccc(/C=C2\SC(=S)NC2=O)c1`: the 50% inhibitory concentration (IC50) in [5] is more than 30 µM. For the same compound, the inhibition in data set [3] was less than 40%. For the same compound, the inhibition at 30 µM in [4] was less than 40%. For `COc1ccc(/C=C2\SC(=S)N(C)C2=O)cc1`, in data set [1], the half-maximal inhibitory concentration (IC50) was 1 µM. `Cc1cccc(/C=C2\SC(=S)N(C)C2=O)c1`: the IC50 in [1] is more than 30 µM. Regarding `CCCCCCC/C=C1\SC(=S)NC1=O`, the 50% inhibitory concentration (IC50) in data set [1] was 6.8 µM.

As to `CN1C(=O)/C(=C/c2ccccc2)SC1=S`, the half-maximal inhibitory concentration (IC50) in data set [1] is more than 30 µM. For `O=C1NC(=S)S/C1=C\c1ccccc1F`, the half-inhibitory concentration (IC50) in data set [1] was more than 30 µM. Still for that read-out and setting: as for `CCCCCCCCC/C=C1\SC(=S)NC1=O`, the figure is 10.2 µM; as for `CN1C(=O)/C(=C/c2cccc3ccccc23)SC1=S`, more than 30 µM; as for `CN1C(=O)/C(=C/c2ccc(O)cc2)SC1=S`, 14 µM. As to `Cc1ccc(/C=C2\SC(=S)NC2=O)cc1`, in [5], the IC50 was more than 30 µM. The inhibition at 30 µM in data set [4] was less than 40%.

Regarding `O=C1NC(=S)S/C1=C\c1ccc(-c2ccccc2)cc1`, the inhibition in data set [3] is less than 40%. The inhibition at 30 µM in [4] was less than 40%.

As for `NN1C(=O)/C(=C/c2cc(I)c(O)c(I)c2)SC1=S`, the Activity in data set [2] is recorded as less than 80%. Take `O=C1NC(=S)S/C1=C\c1ccc(Br)cc1`: the IC50 in [1] is more than 30 µM.

On to `C/C(=C1/SC(=S)NC1=O)c1ccccc1`, for which the IC50 in [1] amounted to 25 µM. `COc1ccc(/C=C2\SC(=S)NC2=O)cc1`: the IC50 in data set [5] was more than 30 µM. Moreover, the inhibition in data set [3] was less than 40%. Moreover, the inhibition at 30 µM in data set [4] is less than 40%. As to `CCCCC/C=C1\SC(=S)NC1=O`, the IC50 in [1] was determined as 1.3 µM. As for `CCC/C=C1\SC(=S)NC1=O`, the IC50 in [1] amounted to 7.7 µM. Still for that read-out and setting: as for `CN1C(=O)/C(=C/Cc2ccccc2)SC1=S`, the figure is more than 30 µM. In the case of `Cc1ccccc1/C=C1\SC(=S)NC1=O`, the inhibition at 30 µM in [4] is less than 40%.

As to `Cc1ccccc1/C=C1\SC(=S)N(C)C1=O`, the IC50 in data set [1] worked out at 4.4 µM. On the same count and under the same terms, the figure for `NN1C(=O)/C(=C/c2ccc(O)cc2)SC1=S` is 10.1 µM. The compound `O=C1NC(=S)S/C1=C\c1ccccc1O` came in with an Activity in data set [2] of less than 80%. Moreover, the inhibition in data set [3] was less than 40%. Further, the inhibition at 30 µM in data set [4] is less than 40%. For the compound `O=C1NC(=S)S/C1=C\c1cccc(F)c1`, the IC50 in [1] is 6.7 µM.

For the compound `COc1ccccc1/C=C1\SC(=S)N(C)C1=O`, in data set [1], the concentration for half-maximal inhibition (IC50) was more than 30 µM. On the same count and under the same terms, the figure for `Cc1ccc(/C=C2\SC(=S)N(C)C2=O)cc1` is more than 30 µM. On the same count and under the same terms, as for `O=C1NC(=S)S/C1=C\c1cccc2ccccc12`, the figure is more than 30 µM. The same measure, in the same setting: the figure for `CN1C(=O)/C(=C/c2cccc(F)c2)SC1=S` is 7.3 µM.
